Laboratory results taken from ChEMBL document CHEMBL1201862, “PubChem BioAssay data set” (2004).
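Compound exposure: 48 hours, 5 concentrations, 96-well plates. GI50 = concentration required for 50% inhibition of growth.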 The source made the active and inactive calls. Cut-off read from the data, not from the text of the source: active = GI50 up to about 1.1 µM and inactive = higher.

Key:
Assay in all cases: NCI-60 cell line screen, 48 h
SF-268 = system: SF-268
KM12 = system: KM12
SF-295 = system: SF-295
LOX IMVI = system: LOX IMVI
SK-MEL-28 = system: SK-MEL-28
HOP-92 = system: HOP-92
HCT-116 = system: HCT-116
OVCAR-5 = system: OVCAR-5
M14 = system: M14
UACC-62 = system: UACC-62
OVCAR-8 = system: OVCAR-8
A549 = system: A549
SW-620 = system: SW-620
NCI-H460 = system: NCI-H460
UO-31 = system: UO-31
DU-145 = system: DU-145
NCI/ADR-RES = system: NCI/ADR-RES
MDA-MB-231 = system: MDA-MB-231
MDA-MB-435 = system: MDA-MB-435

| Structure (SMILES) | GI50 (SF-268) | GI50 (KM12) | GI50 (SF-295) | GI50 (LOX IMVI) | GI50 (SK-MEL-28) | GI50 (HOP-92) | GI50 (HCT-116) | GI50 (OVCAR-5) | GI50 (M14) | GI50 (UACC-62) | GI50 (OVCAR-8) | GI50 (A549) | GI50 (SW-620) | GI50 (NCI-H460) | GI50 (UO-31) | GI50 (DU-145) | GI50 (NCI/ADR-RES) | GI50 (MDA-MB-231) | GI50 (MDA-MB-435) |
| --- | --- | --- | --- | --- | --- | --- | --- | --- | --- | --- | --- | --- | --- | --- | --- | --- | --- | --- | --- |
| Cn1cnnc1Sc1c([N+](=O)[O-])ncn1C | > 100 µM (inactive) | > 100 µM (inactive) | > 100 µM (inactive) | 35.2 µM (inactive) | 36.9 µM (inactive) | 26.5 µM (inactive) | > 100 µM (inactive) | > 100 µM (inactive) | > 100 µM (inactive) | > 100 µM (inactive) | > 100 µM (inactive) | > 100 µM (inactive) | 72.4 µM (inactive) | > 100 µM (inactive) | > 100 µM (inactive) | – | – | – | – |
| c1ccc(CN(Cn2cccn2)Cn2cccn2)nc1 | > 100 µM (inactive) | > 100 µM (inactive) | > 100 µM (inactive) | > 100 µM (inactive) | > 100 µM (inactive) | > 100 µM (inactive) | 61.5 µM (inactive) | – | > 100 µM (inactive) | 43.8 µM (inactive) | > 100 µM (inactive) | > 100 µM (inactive) | > 100 µM (inactive) | > 100 µM (inactive) | > 100 µM (inactive) | – | – | – | – |
| CC1=C2C(=O)C(C)(C)C=C2C(=O)[C@](C)(O)C12CC2 [DEHYDROILLUDIN M] | 0.521 µM (active) | > 0.935 µM (active) | 0.585 µM (active) | 0.402 µM (active) | > 1 µM (active) | > 1 µM (active) | 0.265 µM (active) | > 1 µM (active) | 0.678 µM (active) | 0.586 µM (active) | 0.56 µM (active) | > 1 µM (active) | > 1 µM (active) | 0.23 µM (active) | > 1 µM (active) | – | – | – | – |
| COc1cc(C)cc2c1c(=O)c1ccccc1n2C | 49.7 µM (inactive) | 34.4 µM (inactive) | 20.8 µM (inactive) | 16.8 µM (inactive) | 42.6 µM (inactive) | 31.4 µM (inactive) | 30 µM (inactive) | 34.8 µM (inactive) | 34.7 µM (inactive) | 33.7 µM (inactive) | 40.1 µM (inactive) | 40.4 µM (inactive) | 46.2 µM (inactive) | 32.7 µM (inactive) | – | 49.3 µM (inactive) | 33.8 µM (inactive) | 53.5 µM (inactive) | 35.4 µM (inactive) |
| COc1cc2c(cc1OC)C(O)[C@H](Br)C(C)(C)O2 (some centres undefined) | > 100 µM (inactive) | > 100 µM (inactive) | > 100 µM (inactive) | > 100 µM (inactive) | > 100 µM (inactive) | > 100 µM (inactive) | > 100 µM (inactive) | > 100 µM (inactive) | > 100 µM (inactive) | > 100 µM (inactive) | > 100 µM (inactive) | > 100 µM (inactive) | > 100 µM (inactive) | > 100 µM (inactive) | > 100 µM (inactive) | – | – | – | – |
| CCN(CC)CCNc1ccc2nnn3c4ccc(C)cc4c(=O)c1c23 | 10.2 µM (inactive) | 4.56 µM (inactive) | 5.02 µM (inactive) | 3.61 µM (inactive) | 15.5 µM (inactive) | 6.55 µM (inactive) | 3.78 µM (inactive) | 6.71 µM (inactive) | 12.8 µM (inactive) | 14 µM (inactive) | 5.22 µM (inactive) | 5.37 µM (inactive) | 4.63 µM (inactive) | 3.85 µM (inactive) | 10.2 µM (inactive) | – | – | – | – |
| COc1cc2c(cc1OC)C(CC(=O)NN=C(C)C)NCC2 (centres undefined) | > 100 µM (inactive) | > 100 µM (inactive) | > 100 µM (inactive) | > 100 µM (inactive) | > 100 µM (inactive) | > 100 µM (inactive) | > 100 µM (inactive) | > 100 µM (inactive) | > 100 µM (inactive) | > 100 µM (inactive) | > 100 µM (inactive) | > 100 µM (inactive) | > 100 µM (inactive) | > 100 µM (inactive) | > 100 µM (inactive) | – | – | – | – |
| COc1cc2cc3c4c(cc(OC)c(OC)c4c2cc1OC)CCN3C(=O)OCCBr | > 100 µM (inactive) | 60.7 µM (inactive) | > 100 µM (inactive) | 32.7 µM (inactive) | > 100 µM (inactive) | 39.1 µM (inactive) | 50.9 µM (inactive) | > 100 µM (inactive) | – | 60.4 µM (inactive) | > 100 µM (inactive) | 28 µM (inactive) | 60.8 µM (inactive) | 33.2 µM (inactive) | > 100 µM (inactive) | – | – | – | – |
| O=S(=O)(c1ccccc1)C1CN2OC1(S(=O)(=O)c1ccccc1)CC21CCCCC1 (centres undefined) | > 100 µM (inactive) | > 100 µM (inactive) | > 100 µM (inactive) | > 100 µM (inactive) | > 100 µM (inactive) | – | > 100 µM (inactive) | > 100 µM (inactive) | > 100 µM (inactive) | > 100 µM (inactive) | > 100 µM (inactive) | > 100 µM (inactive) | > 100 µM (inactive) | 92.5 µM (inactive) | 42.9 µM (inactive) | – | – | – | – |
| CC(C)N(C(C)C)P(OCCC#N)OC1CC(n2cnc3c(=O)[nH]cnc32)OC1COC(=O)NCCCCCCNC(=O)OC(C)(C)c1ccc(-c2ccccc2)cc1 (centres undefined) | 29.6 µM (inactive) | 18.7 µM (inactive) | 52.1 µM (inactive) | 18.2 µM (inactive) | 34.3 µM (inactive) | 35.9 µM (inactive) | 39.1 µM (inactive) | > 100 µM (inactive) | 18.4 µM (inactive) | 18.4 µM (inactive) | 34.4 µM (inactive) | 39.4 µM (inactive) | 34.1 µM (inactive) | 22.9 µM (inactive) | 17.5 µM (inactive) | – | – | – | – |
| O=C(Nc1ccccc1)c1cc(S(=O)(=O)Nc2n[nH]c(=O)[nH]2)c(SSc2cc(Cl)c(C(=O)Nc3ccccc3)cc2S(=O)(=O)Nc2n[nH]c(=O)[nH]2)cc1Cl | > 100 µM (inactive) | > 100 µM (inactive) | > 100 µM (inactive) | > 100 µM (inactive) | > 100 µM (inactive) | > 100 µM (inactive) | > 100 µM (inactive) | > 100 µM (inactive) | > 100 µM (inactive) | – | > 100 µM (inactive) | > 100 µM (inactive) | > 100 µM (inactive) | > 100 µM (inactive) | > 100 µM (inactive) | – | > 100 µM (inactive) | > 100 µM (inactive) | > 100 µM (inactive) |
| COC(=O)C1CC/C(=N/C2c3ccccc3-c3ccccc32)N1 (centres undefined) | > 100 µM (inactive) | > 100 µM (inactive) | > 100 µM (inactive) | > 10 µM (inactive) | > 100 µM (inactive) | 14.1 µM (inactive) | > 100 µM (inactive) | > 100 µM (inactive) | > 100 µM (inactive) | 63 µM (inactive) | > 100 µM (inactive) | > 100 µM (inactive) | > 100 µM (inactive) | 32.7 µM (inactive) | > 100 µM (inactive) | – | – | – | – |
| O=C1C2C(C(=O)N1c1ccccc1)C1(Br)c3ccccc3C2(Br)C2C(=O)N(c3ccccc3)C(=O)C21 (centres undefined) | 27.7 µM (inactive) | 16.6 µM (inactive) | > 100 µM (inactive) | > 31.6 µM (inactive) | > 31.6 µM (inactive) | > 10 µM (inactive) | 28.3 µM (inactive) | > 31.6 µM (inactive) | > 31.6 µM (inactive) | 23.7 µM (inactive) | > 100 µM (inactive) | 28.1 µM (inactive) | > 31.6 µM (inactive) | > 31.6 µM (inactive) | 17.5 µM (inactive) | – | – | – | – |
| CCCCCCCCCC1CC(=O)OC23CCCC(=O)C12O3 (centres undefined) | > 100 µM (inactive) | 82.2 µM (inactive) | > 100 µM (inactive) | 70.5 µM (inactive) | > 100 µM (inactive) | > 100 µM (inactive) | > 100 µM (inactive) | > 100 µM (inactive) | > 100 µM (inactive) | 80 µM (inactive) | 52.1 µM (inactive) | > 100 µM (inactive) | > 100 µM (inactive) | > 100 µM (inactive) | > 100 µM (inactive) | – | – | – | – |
| COc1ccc(/C=C/C(=O)c2sc(-n3nc(-c4ccccc4)cc3-c3ccccc3)nc2C)cc1OC | 27.4 µM (inactive) | 28.1 µM (inactive) | 28.1 µM (inactive) | 28.9 µM (inactive) | 37.9 µM (inactive) | – | 31.3 µM (inactive) | 32.1 µM (inactive) | 62.8 µM (inactive) | 13.9 µM (inactive) | 31.4 µM (inactive) | 39.4 µM (inactive) | 43.8 µM (inactive) | 56.8 µM (inactive) | 42 µM (inactive) | – | – | – | – |
| Nc1ccccc1C(=O)C(Br)C(Br)c1ccc2c(c1)OCO2 (centres undefined) | 26.4 µM (inactive) | 18 µM (inactive) | 27.6 µM (inactive) | 14 µM (inactive) | 23.4 µM (inactive) | 15 µM (inactive) | 16.4 µM (inactive) | – | 18.4 µM (inactive) | 16.8 µM (inactive) | 27.6 µM (inactive) | 20.6 µM (inactive) | 32.6 µM (inactive) | 18.6 µM (inactive) | 15.5 µM (inactive) | – | – | – | – |
| COc1ccc2c(c1)CCC(OS(=O)(=O)CC13CCC(CC1=O)C3(C)C)C2=O (centres undefined) | 22.1 µM (inactive) | 19.5 µM (inactive) | – | 15.6 µM (inactive) | 36.3 µM (inactive) | 31.8 µM (inactive) | 24.3 µM (inactive) | 37.2 µM (inactive) | 29.5 µM (inactive) | 16.9 µM (inactive) | 18.7 µM (inactive) | 26.4 µM (inactive) | 26.4 µM (inactive) | 18.1 µM (inactive) | 35.6 µM (inactive) | – | – | – | – |
| COc1ccccc1NC(=O)CC(=O)n1nc(C)c(/N=N/c2ccccc2F)c1C | 28.7 µM (inactive) | > 100 µM (inactive) | > 52 µM (inactive) | > 100 µM (inactive) | > 100 µM (inactive) | 37.7 µM (inactive) | > 31.6 µM (inactive) | > 100 µM (inactive) | > 100 µM (inactive) | > 100 µM (inactive) | 44.6 µM (inactive) | 98.4 µM (inactive) | > 100 µM (inactive) | > 100 µM (inactive) | > 100 µM (inactive) | – | – | – | – |
